The values below come from ChEMBL document CHEMBL1201862, “PubChem BioAssay data set” (2004).

The source made the active and inactive calls.

The target of one assay is Albumin (Bos taurus, UniProt P02769). The experiment in a line: Counterscreen for inhibitors of T-cell receptor (TCR)-CD3 interaction: Fluorescence-based biochemical high throughput dose response assay to identify inhibitors of T-cell receptor (TCR)-CD3 interaction using a TAMRA-labeled BSA probe. Type of assay: functional.
Assay [1] in a line: C. albicans growth with fluconazole, confirmation, fluorescence, retest (AID 2467). In kind it is functional, cell-based.
Another assay concerns Streptococcus. The experiment in a line: Group A Streptococcus viability loss, dose response, counter-screen for streptokinase expression inhibitor project, luminescence, BacTiterGlo (AID 1915).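 Also: potency for reduction of bacterial viability or growth.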 In kind it is functional, organism-based.
Assay [2] in a line: NIH-3T3 fibroblast cytotoxicity, dose response, cytotoxicity control, cell-based, fluorescence, Alamar Blue, secondary assay (AID 2327).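 Also: NIH-3T3 mouse fibroblasts cultured with fluconazole at 8 µg/mL.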 In kind it is functional.
Assay [3] has as its target Serine/threonine-protein phosphatase (Candida dubliniensis (strain CD36 / CBS 7987 / NCPF 3949 / NRRLY-17841) (Yeast), UniProt B9W6M3). The experiment in a line: calcineurin pathway inhibitors in yeast reporter, dose response, S. cerevisiae, CDRE-lacZ, luminescence, secondary (AID 2388).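 Also: yeast reporter cells carrying a calcineurin-responsive lacZ construct stimulated with calcium chloride; luminescent beta-galactosidase reporter signal in whole cells rather than isolated phosphatase activity; potency for inhibition where a drop in reporter signal means calcineurin blockade.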 Type of assay: functional, cell-based.
The test system of assay [4] is Streptococcus sp. 'group A'. The experiment in a line: growth inhibition of control SK(-) GAS strain, dose response, counter-screen for streptokinase expression inhibitor project, luminescence, kanamycin, BacTiterGlo, confirmation (AID 1900). Type of assay: functional, organism-based.
The target in assay [5] is ATP-dependent molecular chaperone HSP82 (Candida albicans (strain WO-1) (Yeast), UniProt C4YTQ8). Kind of assay: loss of DOC-induced GRE-beta-galactosidase reporter signal, dose response, Hsp90 inhibitor project, S. cerevisiae, luminescence (AID 2400).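 Also: beta-galactosidase luminescence from glucocorticoid response element reporter as proxy for Hsp90 function; inhibitor potency where signal loss means Hsp90 inhibition.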 In kind it is functional, cell-based.
Sequence of ATP-dependent molecular chaperone HSP82 (C4YTQ8 whole entry): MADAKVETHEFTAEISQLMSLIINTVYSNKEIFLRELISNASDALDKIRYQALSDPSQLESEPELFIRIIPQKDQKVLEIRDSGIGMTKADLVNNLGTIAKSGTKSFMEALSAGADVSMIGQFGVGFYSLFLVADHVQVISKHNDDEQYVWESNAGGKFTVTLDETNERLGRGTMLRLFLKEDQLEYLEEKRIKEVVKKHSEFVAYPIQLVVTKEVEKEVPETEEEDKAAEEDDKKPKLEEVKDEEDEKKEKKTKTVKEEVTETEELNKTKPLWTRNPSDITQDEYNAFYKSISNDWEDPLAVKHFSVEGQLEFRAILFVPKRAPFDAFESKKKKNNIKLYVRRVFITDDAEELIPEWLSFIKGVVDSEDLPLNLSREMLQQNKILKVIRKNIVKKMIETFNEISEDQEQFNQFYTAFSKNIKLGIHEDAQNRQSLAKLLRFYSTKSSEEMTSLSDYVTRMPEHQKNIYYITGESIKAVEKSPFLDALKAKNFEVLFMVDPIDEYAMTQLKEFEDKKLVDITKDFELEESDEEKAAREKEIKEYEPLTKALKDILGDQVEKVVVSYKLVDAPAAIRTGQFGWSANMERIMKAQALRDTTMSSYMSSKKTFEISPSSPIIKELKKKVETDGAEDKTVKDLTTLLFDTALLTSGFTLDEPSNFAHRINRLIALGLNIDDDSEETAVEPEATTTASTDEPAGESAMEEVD
Another assay concerns the target Mu-type opioid receptor (Homo sapiens, UniProt P35372). Kind of assay: Counterscreen for agonists of heterodimerization of the mu 1 (OPRM1) and delta 1 (OPRD1) opioid receptors: Luminescence-based cell-based high throughput dose response assay to identify agonists of OPRM1 homodimerization. In kind it is functional.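 Also: U2OS cells expressing OPRM1 and beta-arrestin as split beta-galactosidase partners.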
The target in assay [6] is 5-hydroxytryptamine receptor 5A (Homo sapiens, UniProt P47898). Kind of assay: Counterscreen for agonists of OPRM1-OPRD1 heterodimerization: luminescence-based cell-based high throughput dose response assay to identify agonists of 5-hydroxytryptamine (serotonin) 5A receptor (HTR5A). [Related pubchem assays (depositor defined):AID504326, AID504355, AID504692, AID504904, AID504905]. Type of assay: functional.

Assay [7] concerns the target Delta-type opioid receptor (Homo sapiens, UniProt P41143). The experiment in a line: Counterscreen for agonists of heterodimerization of the mu 1 (OPRM1) and delta 1 (OPRD1) opioid receptors: Luminescence-based cell-based high throughput dose response assay to identify agonists of OPRD1 homodimerization. [Related pubchem assays (depositor defined):AID504326, AID504355, AID504692, AID504904, AID504905]. In kind it is functional.

For a further assay, the system named is Escherichia coli. The experiment in a line: microbe, parasite or virus in culture.
Assay [8] has as its target 5-hydroxytryptamine receptor 1A (Homo sapiens, UniProt P08908). In kind it is functional.
Another assay has as its system HEK293. Kind of assay: inhibitors of LMP1-driven NF-kB reporter, dose response, cell-based, HEK293, luciferase, cherry-pick (AID 588343). As to conditions: Homo sapiens. In kind it is functional.
A further assay concerns CHO. The experiment in a line: cytotoxicity in TLR9-MyD88 CHO cells, dose response, cytotoxicity control for TLR9-MyD88 binding inhibitor project, cell-based, luminescence (AID 588339).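 Also: CHO cells stably coexpressing TLR9 and MyD88 fusions from primary screen; compound exposure lasted 48 hours before viability readout.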 Type of assay: functional, hamster. As to conditions: Cricetulus griseus.
In assay [9] the target is Heat shock protein HSP 90-alpha (Homo sapiens, UniProt P07900). In kind it is functional, organism-based.
Assay [10] concerns Vero. The experiment in a line: cells. Conditions: Chlorocebus sabaeus. Type of assay: functional, cell-based.
Assay [11] addresses Glucose-6-phosphate 1-dehydrogenase (Homo sapiens, UniProt P11413). The experiment in a line: human G6PD enzyme inhibitors, dose response, selectivity assay for P. falciparum G6PD inhibitor project, biochemical, fluorescence (AID 504792). In kind it is functional.
For assay [12], the target named is T1, Microphthalmia-associated transcription factor (Homo sapiens, UniProt O75030).
T1 sequence (O75030 whole entry): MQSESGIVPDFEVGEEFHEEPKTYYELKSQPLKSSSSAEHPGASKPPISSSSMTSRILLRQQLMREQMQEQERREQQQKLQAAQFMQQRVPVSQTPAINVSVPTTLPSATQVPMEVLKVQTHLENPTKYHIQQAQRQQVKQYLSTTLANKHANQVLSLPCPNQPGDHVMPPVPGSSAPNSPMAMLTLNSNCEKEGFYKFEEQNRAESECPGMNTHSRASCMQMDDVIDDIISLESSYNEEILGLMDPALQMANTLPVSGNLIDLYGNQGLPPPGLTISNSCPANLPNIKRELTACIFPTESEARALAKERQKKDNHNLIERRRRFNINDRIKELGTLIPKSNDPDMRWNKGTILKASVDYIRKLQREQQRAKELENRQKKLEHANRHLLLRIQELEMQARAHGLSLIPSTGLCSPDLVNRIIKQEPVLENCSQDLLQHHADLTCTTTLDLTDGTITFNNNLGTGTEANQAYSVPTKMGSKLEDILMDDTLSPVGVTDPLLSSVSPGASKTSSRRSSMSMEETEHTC
Kind of assay: TRPM1 promoter luciferase signal decrease, dose response, MITF inhibitor project, cell-based, SK-MEL-5, cherry-picked, set 3 (AID 493073).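 Also: SK-MEL-5 melanoma cells with luciferase driven by the MITF target TRPM1 promoter.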 In kind it is functional.

The subject of assay [13] is Vero. The experiment in a line: cells. As to conditions: Chlorocebus sabaeus. In kind it is functional.
A further assay has as its system A-375. Kind of assay: A375 melanoma cell viability reduction, dose response, counter-screen for MITF modulator project, cherry-pick samples, set 2 (AID 540335). Type of assay: functional, cell-based. Conditions: Homo sapiens.
In assay [14] the target is Latent membrane protein 1 (Human herpesvirus 4 (strain B95-8), UniProt P03230). The experiment in a line: TES1-eGFP NF-kB reporter inhibition versus Tet-On dsRED, dose response, selectivity assay for LMP1 NF-kB inhibitor project, imaging, HEK293T, dual-color eGFP/dsRED, cherry-picks (AID 588398). In kind it is functional, cell-based.
In another assay the target is Nonstructural protein 1 (Influenza A virus, UniProt Q194T2). Type of assay: functional, Influenza A virus (A/California/07/2009(H1N1)).
Sequence of Nonstructural protein 1 (Q194T2 whole entry): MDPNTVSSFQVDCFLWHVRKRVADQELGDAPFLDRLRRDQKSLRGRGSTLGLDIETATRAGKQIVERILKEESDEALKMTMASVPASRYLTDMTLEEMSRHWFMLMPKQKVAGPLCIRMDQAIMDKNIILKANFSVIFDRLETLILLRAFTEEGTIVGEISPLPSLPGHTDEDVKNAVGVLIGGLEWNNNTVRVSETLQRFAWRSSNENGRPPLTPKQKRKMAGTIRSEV
The target of assay [15] is Glycogen synthase kinase-3 alpha (Homo sapiens, UniProt P49840). Kind of assay: Inhibition of Human GSK-3 alpha Activity Measured in Biochemical System Using Microfluidics - 2063-06_Inhibitor_Dose_DryPowder_Activity. [Related pubchem assays (depositor defined):AID2709].
Sequence of Glycogen synthase kinase-3 alpha (P49840 whole entry): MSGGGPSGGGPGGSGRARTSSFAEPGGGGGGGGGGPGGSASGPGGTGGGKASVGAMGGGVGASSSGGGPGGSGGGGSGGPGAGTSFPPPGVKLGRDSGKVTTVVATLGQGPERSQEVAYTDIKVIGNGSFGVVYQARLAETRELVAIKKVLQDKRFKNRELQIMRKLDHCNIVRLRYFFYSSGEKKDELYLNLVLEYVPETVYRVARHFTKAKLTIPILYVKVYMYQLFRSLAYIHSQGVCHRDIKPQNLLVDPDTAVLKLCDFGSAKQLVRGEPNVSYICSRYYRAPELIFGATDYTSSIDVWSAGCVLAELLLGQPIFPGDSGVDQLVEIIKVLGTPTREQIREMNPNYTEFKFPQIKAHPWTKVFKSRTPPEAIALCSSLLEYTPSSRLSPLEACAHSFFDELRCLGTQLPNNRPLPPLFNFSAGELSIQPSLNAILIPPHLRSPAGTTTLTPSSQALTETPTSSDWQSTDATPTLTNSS
The target in assay [16] is Glycogen synthase kinase-3 beta (Homo sapiens, UniProt P49841). The experiment in a line: Inhibition of Human GSK-3 beta Activity Measured in Biochemical System Using Microfluidics - 2063-05_Inhibitor_Dose_DryPowder_Activity. [Related pubchem assays (depositor defined):AID2709].
Sequence of Glycogen synthase kinase-3 beta (P49841 whole entry): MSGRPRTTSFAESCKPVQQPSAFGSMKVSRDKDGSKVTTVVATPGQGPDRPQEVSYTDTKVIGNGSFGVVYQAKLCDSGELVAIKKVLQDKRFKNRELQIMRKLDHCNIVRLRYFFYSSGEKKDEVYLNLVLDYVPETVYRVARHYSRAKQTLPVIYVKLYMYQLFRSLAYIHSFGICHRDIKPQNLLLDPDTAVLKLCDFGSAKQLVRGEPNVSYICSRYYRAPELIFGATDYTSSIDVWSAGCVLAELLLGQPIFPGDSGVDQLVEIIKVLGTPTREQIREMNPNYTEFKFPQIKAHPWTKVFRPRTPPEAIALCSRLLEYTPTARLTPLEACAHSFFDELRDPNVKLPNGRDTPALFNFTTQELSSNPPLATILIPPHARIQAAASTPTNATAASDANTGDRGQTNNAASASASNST

Sequence of Serine/threonine-protein phosphatase (B9W6M3 whole entry): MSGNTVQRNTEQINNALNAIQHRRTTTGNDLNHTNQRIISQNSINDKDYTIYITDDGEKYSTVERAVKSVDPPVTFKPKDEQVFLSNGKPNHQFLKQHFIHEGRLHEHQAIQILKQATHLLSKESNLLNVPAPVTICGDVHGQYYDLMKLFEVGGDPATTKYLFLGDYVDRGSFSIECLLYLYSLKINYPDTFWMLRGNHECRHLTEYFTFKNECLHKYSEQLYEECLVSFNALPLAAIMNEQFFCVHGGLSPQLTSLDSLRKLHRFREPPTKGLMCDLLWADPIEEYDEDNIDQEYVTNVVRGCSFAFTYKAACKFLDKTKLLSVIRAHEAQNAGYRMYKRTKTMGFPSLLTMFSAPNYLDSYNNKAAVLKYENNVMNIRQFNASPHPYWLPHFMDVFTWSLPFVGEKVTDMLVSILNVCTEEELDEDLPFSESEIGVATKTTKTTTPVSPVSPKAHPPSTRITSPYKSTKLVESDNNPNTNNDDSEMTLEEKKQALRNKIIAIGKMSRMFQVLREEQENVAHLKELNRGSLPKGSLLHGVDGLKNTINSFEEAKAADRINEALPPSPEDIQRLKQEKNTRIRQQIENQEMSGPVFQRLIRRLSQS
Sequence of Mu-type opioid receptor (P35372 whole entry): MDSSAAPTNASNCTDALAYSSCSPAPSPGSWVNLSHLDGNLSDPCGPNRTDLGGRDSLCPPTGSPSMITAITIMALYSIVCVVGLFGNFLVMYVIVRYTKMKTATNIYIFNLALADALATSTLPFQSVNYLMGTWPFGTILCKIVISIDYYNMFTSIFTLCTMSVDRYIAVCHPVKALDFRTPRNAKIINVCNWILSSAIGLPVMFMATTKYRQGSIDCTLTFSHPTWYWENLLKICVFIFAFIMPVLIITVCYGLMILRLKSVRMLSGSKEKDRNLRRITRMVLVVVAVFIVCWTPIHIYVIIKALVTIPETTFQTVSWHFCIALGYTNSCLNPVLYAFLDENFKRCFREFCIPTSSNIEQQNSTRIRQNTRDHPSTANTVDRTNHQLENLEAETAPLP
Sequence of Delta-type opioid receptor (P41143 whole entry): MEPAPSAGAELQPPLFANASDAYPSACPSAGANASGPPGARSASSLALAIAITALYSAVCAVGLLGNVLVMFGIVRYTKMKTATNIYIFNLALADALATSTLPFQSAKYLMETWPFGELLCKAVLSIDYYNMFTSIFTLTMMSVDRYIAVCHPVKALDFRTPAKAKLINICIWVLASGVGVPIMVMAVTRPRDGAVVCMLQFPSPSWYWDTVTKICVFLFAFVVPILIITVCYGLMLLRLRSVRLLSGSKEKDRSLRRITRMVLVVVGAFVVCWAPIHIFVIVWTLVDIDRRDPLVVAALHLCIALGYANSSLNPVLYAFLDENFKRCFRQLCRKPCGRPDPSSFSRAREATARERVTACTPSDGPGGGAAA
Sequence of Albumin (P02769 whole entry): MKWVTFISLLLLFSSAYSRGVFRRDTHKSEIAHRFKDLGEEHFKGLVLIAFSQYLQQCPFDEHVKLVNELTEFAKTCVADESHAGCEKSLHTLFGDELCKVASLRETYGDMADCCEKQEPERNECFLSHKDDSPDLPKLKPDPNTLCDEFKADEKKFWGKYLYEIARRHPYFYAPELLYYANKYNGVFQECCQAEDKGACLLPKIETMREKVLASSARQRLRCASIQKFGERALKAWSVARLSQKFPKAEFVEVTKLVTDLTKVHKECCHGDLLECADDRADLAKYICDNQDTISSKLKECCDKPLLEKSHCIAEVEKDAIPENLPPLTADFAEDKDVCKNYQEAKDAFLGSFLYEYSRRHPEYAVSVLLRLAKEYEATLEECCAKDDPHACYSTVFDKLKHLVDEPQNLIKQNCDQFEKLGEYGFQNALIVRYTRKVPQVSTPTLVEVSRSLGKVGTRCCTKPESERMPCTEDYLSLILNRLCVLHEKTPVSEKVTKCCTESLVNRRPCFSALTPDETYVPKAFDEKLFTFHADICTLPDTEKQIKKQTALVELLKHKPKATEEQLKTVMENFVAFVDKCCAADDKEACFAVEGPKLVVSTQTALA
Sequence of 5-hydroxytryptamine receptor 1A (P08908 whole entry): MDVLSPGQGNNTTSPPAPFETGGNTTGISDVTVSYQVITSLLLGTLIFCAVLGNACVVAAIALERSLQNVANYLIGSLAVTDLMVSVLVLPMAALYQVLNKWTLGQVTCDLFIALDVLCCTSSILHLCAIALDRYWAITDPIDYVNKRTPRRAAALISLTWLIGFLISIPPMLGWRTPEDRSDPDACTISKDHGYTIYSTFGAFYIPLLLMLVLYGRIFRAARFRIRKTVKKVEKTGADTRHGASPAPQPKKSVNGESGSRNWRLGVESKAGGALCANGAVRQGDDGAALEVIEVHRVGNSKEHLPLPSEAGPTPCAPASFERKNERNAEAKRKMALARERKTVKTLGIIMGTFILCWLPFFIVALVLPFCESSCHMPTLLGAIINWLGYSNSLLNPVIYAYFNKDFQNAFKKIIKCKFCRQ
Sequence of Glucose-6-phosphate 1-dehydrogenase (P11413 whole entry): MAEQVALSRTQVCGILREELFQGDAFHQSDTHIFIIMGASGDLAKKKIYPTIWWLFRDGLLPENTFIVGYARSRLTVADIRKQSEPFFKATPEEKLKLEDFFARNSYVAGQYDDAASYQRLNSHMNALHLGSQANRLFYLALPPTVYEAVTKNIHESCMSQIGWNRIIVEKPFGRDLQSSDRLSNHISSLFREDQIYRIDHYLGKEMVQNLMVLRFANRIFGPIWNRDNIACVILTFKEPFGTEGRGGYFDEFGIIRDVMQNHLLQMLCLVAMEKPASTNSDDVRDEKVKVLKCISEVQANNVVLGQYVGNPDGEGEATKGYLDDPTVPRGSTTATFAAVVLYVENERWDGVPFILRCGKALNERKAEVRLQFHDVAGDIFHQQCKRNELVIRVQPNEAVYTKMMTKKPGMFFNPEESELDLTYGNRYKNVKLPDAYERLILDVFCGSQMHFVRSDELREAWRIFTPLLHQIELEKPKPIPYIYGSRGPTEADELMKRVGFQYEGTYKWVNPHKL

`Cc1cc(C(=O)N/N=C/c2cc(Cl)cc([N+](=O)[O-])c2O)c2ccccc2n1`: the IC50 at Albumin is > 94.1 µM (inactive). The EC50 is 14.7 µM (active) in assay [1]; 1.51 µM (active) in the assay on Streptococcus; 34.3 µM (active) in assay [2]; > 180 µM (inactive) in assay [3]; 1.03 µM (active) in [4]; 17.5 µM (active) in [5].
In the case of `CCOC(=O)C1(c2ccccc2)CCN(CCC(=O)Nc2cccc(Br)c2)CC1`, the EC50 is 40.6 µM (inactive) on Mu-type opioid receptor, > 92.5 µM (inactive) in assay [6] and 56.8 µM (inactive) in assay [7].
For the compound `Cn1c(-c2ccccc2)cnc1SCc1nc(O)c2ccccc2n1`, the concentration at half-maximal activity (AC50) in the assay with Escherichia coli is 234 µM (active). Further, the EC50 in assay [8] is listed as > 50 µM (not active).
Consider `CC(=NNC(=S)N1CCN(c2ccccn2)CC1)c1nccs1`, for which the concentration at half-maximal activity (AC50) in the assay with HEK293 was 4.44 µM (active); in assay [9], 2.18 µM (active); in assay [12] it was 0.681 µM (active); with A-375 it was 34.7 µM (active); in assay [14], 5.18 µM (active). Also, the IC50 in the assay with CHO was 0.11 µM (active); in the assay on Vero [10], > 25 µM (active); in assay [11], > 80 µM (inactive); on Nonstructural protein 1, 3.38 µM (active). For the same compound, the cytotoxic concentration (CC50) in the assay with Vero [13] is 8.98 µM (active).
For `O/N=C/c1cn(-c2ccccc2)nc1-c1cccnc1`, the half-maximal activity concentration (AC50) in [15] was 0.828 µM (active); in assay [16], 0.246 µM (active).
